Measured values from patent US20080318943A1, “Compounds and Uses Thereof - 848” (ASTRAZENECA AB, priority 2007, published 2008).

Key:
[1] = biological target: T1, GABAA2 receptors (α2, β3, γ2 receptor subunits transfected into Sf9 cells) (Homo sapiens, UniProt P18507+P47869); assay: GABAA2 Binding Method ([3H]-Flunitrazepam displacement); conditions: [3H]-Flunitrazepam ~2 nM, α2β3γ2 Sf9 membranes, 1 hr at 4° C.
T1 construct: host or cells: Sf9 cells (membranes)
Procedure, shortened: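 Membranes from Sf9 cells expressing α2β3γ2 GABAA receptors incubated with ~2 nM (final) [3H]-flunitrazepam and test compound 1 h at 4 °C, then filtered on GF/B plates with cold-buffer washes. Flumazenil-defined controls; percent of control, IC50 and Ki calculated.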

GABAA receptor α2β3γ2 = biological target: T2, GABAA receptor α2β3γ2 (Homo sapiens, UniProt P18507+P47869); assay: Two-electrode voltage-clamp potentiation of GABA EC10 current in Xenopus oocytes, GABAA2; format: cell-based; conditions: percentage potentiation of GABA EC10 current divided by that of diazepam
T2 construct: expressed in transfected cells; host or cells: Xenopus laevis oocytes injected with cRNA
T2 sequence (P47869 29-451): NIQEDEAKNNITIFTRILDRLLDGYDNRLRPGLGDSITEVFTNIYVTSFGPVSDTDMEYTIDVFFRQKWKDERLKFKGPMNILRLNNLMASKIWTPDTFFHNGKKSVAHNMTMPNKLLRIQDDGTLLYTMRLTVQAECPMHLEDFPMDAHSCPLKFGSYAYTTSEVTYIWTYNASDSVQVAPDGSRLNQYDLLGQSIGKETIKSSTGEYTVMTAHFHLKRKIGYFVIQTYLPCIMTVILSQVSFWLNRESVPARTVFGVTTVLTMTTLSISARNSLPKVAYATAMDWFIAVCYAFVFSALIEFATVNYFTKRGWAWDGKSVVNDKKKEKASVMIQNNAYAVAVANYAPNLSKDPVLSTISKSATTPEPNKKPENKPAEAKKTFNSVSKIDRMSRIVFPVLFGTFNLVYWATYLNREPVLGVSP
T2 sequence (P28472 26-473 partner): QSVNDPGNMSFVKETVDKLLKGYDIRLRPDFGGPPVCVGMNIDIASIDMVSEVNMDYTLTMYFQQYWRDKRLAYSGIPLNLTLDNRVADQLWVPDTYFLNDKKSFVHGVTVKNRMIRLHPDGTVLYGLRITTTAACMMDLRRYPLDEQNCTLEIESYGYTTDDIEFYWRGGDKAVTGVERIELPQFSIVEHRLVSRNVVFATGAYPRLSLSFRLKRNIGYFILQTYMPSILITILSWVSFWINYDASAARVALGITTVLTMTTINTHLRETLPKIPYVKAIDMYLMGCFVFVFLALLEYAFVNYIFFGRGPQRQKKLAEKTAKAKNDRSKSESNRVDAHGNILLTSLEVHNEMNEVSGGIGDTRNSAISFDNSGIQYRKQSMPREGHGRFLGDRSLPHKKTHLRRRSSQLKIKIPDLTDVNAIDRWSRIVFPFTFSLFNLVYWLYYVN
T2 sequence (P18507 40-475): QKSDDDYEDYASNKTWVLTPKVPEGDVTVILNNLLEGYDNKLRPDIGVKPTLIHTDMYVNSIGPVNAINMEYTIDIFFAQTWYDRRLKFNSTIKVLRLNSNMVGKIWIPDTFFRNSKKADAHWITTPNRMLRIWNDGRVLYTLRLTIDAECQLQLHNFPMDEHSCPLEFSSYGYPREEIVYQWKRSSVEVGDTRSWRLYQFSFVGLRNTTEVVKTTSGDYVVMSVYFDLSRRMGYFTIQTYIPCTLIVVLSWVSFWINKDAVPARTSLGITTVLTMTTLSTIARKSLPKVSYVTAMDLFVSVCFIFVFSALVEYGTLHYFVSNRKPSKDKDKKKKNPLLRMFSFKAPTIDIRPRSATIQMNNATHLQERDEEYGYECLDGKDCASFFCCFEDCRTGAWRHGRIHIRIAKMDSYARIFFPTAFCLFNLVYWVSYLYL
Method: GABAA receptors were heterologously expressed in Xenopus oocytes by injecting cRNA corresponding to human α1, α2, α3, α5, β2, P3 and γ2 subunits of the GABAA receptor genes. The specific subunit combinations (subtypes) were as follows: α1β2γ2, α2β3γ2, α3β3γ2, and α5β3γ2. The EC10 of GABA is approximated for each cell. Stability of GABA-mediated (EC10) current is established. Modulatory effect of test compound is determined and compared across subtypes. […] Thus, the assay can characterize modulatory effects and determine subtype selectivity of test compounds on major subtypes of GABAA receptors.
Xenopus laevis frogs (Xenopus I, Kalamazoo, Mich.) were anesthetized using 0.15% tricaine. Surgically removed ovarian lobes were teased out in OR2 solution (82 NaCl, 2.5 KCl, 5 HEPES, 1.5 NaH2PO4, 1 MgCl2, 0.1 EDTA, in mM, pH 7.4). The oocytes were defolliculated by incubation in 25 mL OR2 containing 0.2% collagenase 1A (SIGMA) two times for about 60 minutes on a platform shaker and stored in Leibovitz's L-15 medium. Oocytes were injected the following day in 0.5× Leibovitz's L-15 medium containing […] gentamycin, 10 units/ml penicillin, and […] streptomycin.
Capped cRNAs from the linearized vectors containing human α1, β2 and γ2 subunits of the GABAA receptor genes were mixed in ratio of […]. Oocytes were injected with 25-50 nL of mixed RNA with an appx molar ratio for α1, β2, and γ2 as 1:1:10. Oocyte recordings were done 2-10 days after injection. The same methods apply to subtypes derived from α2β3γ2, α3β3γ2, and α5β3γ2, except for 1:1:1 ratio was used for α, β, and γ subunits.
All measurements were done in a medium containing ND-96 (96 NaCl, 2 KCl, 1.8 CaCl2.2H2O, 1 MgCl2.6H2O, 5 HEPES, in mM, pH 7.5). Two-electrode voltage-clamp recording was carried out using OpusXpress amplifier (Axon Instruments, Foster City, Calif.), which allows simultaneous recording from 8 oocytes. Oocytes were impaled with two electrodes of 1-2 MΩ tip resistance when filled with 3M KCl. Recordings were begun when membrane potential became stable at potentials negative to −50-−60 mV. Membrane potential was held at −60 mV. […] The concentration of GABA corresponded to the EC10 value calculated for each oocyte. The modulator pulses started 30 s before the GABA pulse so as to allow preincubation with the modulator. A set of 3 pulses with just GABA without modulator was given prior to the modulator-containing pulses to define the baseline GABA response. Two oocytes per each experiment were dedicated to observe the effect of diazepam on GABA response to ensure the presence of γ2 subunit in the GABAA pentameric complex, which imparts diazepam sensitivity to the complex.
Current amplitude (i) was measured from baseline to peak using Clampfit (Axon Inst., Foster City, Calif.). Potentiation was calculated as percent change from the baseline GABA current flux 100×(imod/icontrol)−1) where imod=current mediated by modulator+GABA and icontrol=current mediated by GABA alone. […] Similarly, a value of −50% potentiation means the presence of modulator caused a 50% decrease in the control current. Various other data shown here were fitted and plotted using GraphPad Prism (GraphPad Software, Inc. San Diego, Calif.). The percentage potentiation was converted to relative potentiation by dividing it with percentage potentiation value obtained from the same assay with diazepam as a control.

GABAA receptor α1β2γ2 = biological target: T3, GABAA receptor α1β2γ2 (Homo sapiens, UniProt P14867+P18507); assay: Two-electrode voltage-clamp potentiation of GABA EC10 current in Xenopus oocytes, GABAA1; format: cell-based; conditions: percentage potentiation of GABA EC10 current divided by that of diazepam
T3 construct: expressed in transfected cells; host or cells: Xenopus laevis oocytes injected with cRNA
T3 sequence (P14867 28-456): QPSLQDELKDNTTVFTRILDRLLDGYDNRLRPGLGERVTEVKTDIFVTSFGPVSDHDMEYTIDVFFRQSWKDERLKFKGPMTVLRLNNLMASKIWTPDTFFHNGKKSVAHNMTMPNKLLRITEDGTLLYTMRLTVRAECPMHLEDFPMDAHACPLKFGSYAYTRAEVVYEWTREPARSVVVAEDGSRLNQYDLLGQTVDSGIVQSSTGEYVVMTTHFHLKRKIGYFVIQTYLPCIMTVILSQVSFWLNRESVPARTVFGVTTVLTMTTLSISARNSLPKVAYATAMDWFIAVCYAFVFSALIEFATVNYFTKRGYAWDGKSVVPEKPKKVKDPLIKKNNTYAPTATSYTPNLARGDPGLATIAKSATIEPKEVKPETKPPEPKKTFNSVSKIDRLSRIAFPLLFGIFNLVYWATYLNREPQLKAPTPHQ
T3 sequence (P47870 25-512 partner limits assumed): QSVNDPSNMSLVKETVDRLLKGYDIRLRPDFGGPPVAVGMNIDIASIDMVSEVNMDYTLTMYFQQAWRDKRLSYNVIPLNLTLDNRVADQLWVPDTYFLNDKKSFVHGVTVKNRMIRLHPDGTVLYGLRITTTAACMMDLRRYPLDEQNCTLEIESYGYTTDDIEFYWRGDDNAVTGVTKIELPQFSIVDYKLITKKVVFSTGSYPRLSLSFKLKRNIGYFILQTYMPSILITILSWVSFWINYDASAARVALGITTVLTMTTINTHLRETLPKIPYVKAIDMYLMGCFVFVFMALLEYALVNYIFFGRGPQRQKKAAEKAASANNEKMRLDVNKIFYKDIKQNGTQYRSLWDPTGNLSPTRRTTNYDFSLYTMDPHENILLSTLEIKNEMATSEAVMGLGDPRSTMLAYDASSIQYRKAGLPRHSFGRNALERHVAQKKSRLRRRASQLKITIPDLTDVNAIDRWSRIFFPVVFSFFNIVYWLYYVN
T3 sequence (P18507 40-475): as the sequence (P18507 40-475) above
Procedure, shortened: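 Human GABAA receptors expressed in Xenopus oocytes by cRNA injection (α:β:γ molar ratio ~1:1:10 for α1β2γ2, 1:1:1 for α2β3γ2), recorded 2-10 days later by two-electrode voltage clamp at −60 mV in ND-96, pH 7.5. Modulator preapplied 30 s before GABA at per-oocyte EC10. Peak-current percent potentiation over GABA alone, normalised to diazepam.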

[2] = listed as 9-Amino-2-cyclobutyl-5-((P)-2-fluoro-6-methoxyphenyl)-2,3-dihydro-pyrrolo[3,4-b]
[3] = listed as 9-Amino-2-cyclobutyl-5-((M)-2-fluoro-6-methoxyphenyl)-2,3-dihydro-pyrrolo[3,4-b]

T1 sequence (P47869 29-451): as the sequence (P47869 29-451) above
T1 sequence (P28472 26-473 partner): as the sequence (P28472 26-473 partner) above
T1 sequence (P18507 40-475): as the sequence (P18507 40-475) above

| Ki [1] [nM] | Relative Potentiation for GABAA2 (GABAA receptor α2β3γ2) | Relative Potentiation for GABAA1 (GABAA receptor α1β2γ2) | Compound | also measured |
| --- | --- | --- | --- | --- |
| 0.945 | 0.39 | 0.054 | COc1cccc(F)c1-c1cccc2c(N)c3c(nc12)CN([C@H]1C[C@@H](C)C1)C3=O |  |
| 1.29 | 0.51 | 0.085 | COc1ncccc1-c1cccc2c(N)c3c(nc12)CN([C@H]1C[C@@H](C)C1)C3=O |  |
| 4.65 | 0.3 | 0.14 | COc1ccc(-c2cccc3c(N)c4c(nc23)CN([C@H]2C[C@@H](C)C2)C4=O)c(C)n1 |  |
| 18.8 | 0.32 | 0.097 | COc1ncccc1-c1c(F)ccc2c(N)c3c(nc12)CN(C1CCOC1)C3=O (stereo not drawn) |  |
| 3.63 | 0.38 | −0.018 | COc1cccc(F)c1-c1cccc2c(N)c3c(nc12)CN(C1CC1)C3=O (atropisomer, axis not shown; (P)) |  |
| 0.289 |  |  | COc1cccc(F)c1-c1cccc2c(N)c3c(nc12)CN(C1CCC1)C3=O (single isomer, unassigned) [Example 129, 9-Amino-2-cyclobutyl-5-((P)-2-fluoro-6-methoxyphenyl)-2,3-dihydropyrrolo[3,4-b]quinolin-1-one] | Relative Potentiation for GABAA2 (GABAA receptor α2β3γ2; [2]): 0.23; Relative Potentiation for GABAA1 (GABAA receptor α1β2γ2; [2]): −0.11 |
| 9.21 |  |  | COc1cccc(F)c1-c1cccc2c(N)c3c(nc12)CN(C1CCC1)C3=O (single isomer, unassigned) [Example 130, 9-Amino-2-cyclobutyl-5-((M)-2-fluoro-6-methoxyphenyl)-2,3-dihydropyrrolo[3,4-b]quinolin-1-one] | Relative Potentiation for GABAA2 (GABAA receptor α2β3γ2; [3]): 0.23; Relative Potentiation for GABAA1 (GABAA receptor α1β2γ2; [3]): 0.002 |
| 10.6 |  | 0.53 | CCCN1Cc2nc3c(-c4cc(Br)cnc4OC)cccc3c(N)c2C1=O [9-amino-5-(5-bromo-2-methoxypyridin-3-yl)-2-propyl-2,3-dihydro-1H-pyrrolo[3,4-b]quinolin-1-one] |  |
| 8.95 |  | 0.19 | COc1ccc(Cl)cc1-c1cccc2c(N)c3c(nc12)CN(C1CC1)C3=O [9-amino-5-(5-chloro-2-methoxyphenyl)-2-cyclopropyl-2,3-dihydro-1H-pyrrolo[3,4-b]quinolin-1-one] |  |
| 21.5 |  | 0.49 | CCCN1Cc2nc3c(-c4cc(Cl)cnc4OC)cccc3c(N)c2C1=O [9-amino-5-(5-chloro-2-methoxypyridin-3-yl)-2-propyl-2,3-dihydro-1H-pyrrolo[3,4-b]quinolin-1-one] |  |
| 46.3 |  | 0.39 | COc1ccc(CN2Cc3nc4c(-c5cc(F)ccc5OC)cccc4c(N)c3C2=O)cc1 [9-amino-5-(5-fluoro-2-methoxyphenyl)-2-(4-methoxybenzyl)-2,3-dihydro-1H-pyrrolo[3,4-b]quinolin-1-one] |  |
| 25.8 |  | 0.22 | COc1ccc(CN2Cc3nc4c(-c5cc(F)ccc5C)cccc4c(N)c3C2=O)cc1 [9-amino-5-(5-fluoro-2-methylphenyl)-2-(4-methoxybenzyl)-2,3-dihydro-1H-pyrrolo[3,4-b]quinolin-1-one] |  |
| 6.3 |  | 0.29 | CCCN1Cc2nc3c(-c4cc(F)ccc4C)cccc3c(N)c2C1=O [9-amino-5-(5-fluoro-2-methylphenyl)-2-propyl-2,3-dihydro-1H-pyrrolo[3,4-b]quinolin-1-one] |  |
| 63 |  | 0.23 | CCCN1Cc2nc3c(-c4cncc(OC)c4)cccc3c(N)c2C1=O [9-amino-5-(5-methoxypyridin-3-yl)-2-propyl-2,3-dihydro-1H-pyrrolo[3,4-b]quinolin-1-one] |  |
| 28 |  | 0.16 | Cc1nc(Cl)ccc1-c1cccc2c(N)c3c(nc12)CN(C1CC1)C3=O [9-amino-5-(6-chloro-2-methylpyridin-3-yl)-2-cyclopropyl-2,3-dihydro-1H-pyrrolo[3,4-b]quinolin-1-one] |  |
| 23.1 |  | 1.1 | CCCN1Cc2nc3c(-c4ccc(Cl)nc4C)cccc3c(N)c2C1=O [9-amino-5-(6-chloro-2-methylpyridin-3-yl)-2-propyl-2,3-dihydro-1H-pyrrolo[3,4-b]quinolin-1-one] |  |
| 16.4 |  | 0.29 | CCCN1Cc2nc3c(-c4ccc(OC)nc4C)cccc3c(N)c2C1=O [9-amino-5-(6-methoxy-2-methylpyridin-3-yl)-2-propyl-2,3-dihydro-1H-pyrrolo[3,4-b]quinolin-1-one] |  |
| 36.5 |  | 0.32 | CCCN1Cc2nc3c(-c4cnc(OC)c(C)c4)cccc3c(N)c2C1=O [9-amino-5-(6-methoxy-5-methylpyridin-3-yl)-2-propyl-2,3-dihydro-1H-pyrrolo[3,4-b]quinolin-1-one] |  |
| 38.2 |  | 0.13 | CCCN1Cc2nc3c(-c4ccoc4)cccc3c(N)c2C1=O [9-amino-5-(furan-3-yl)-2-propyl-2,3-dihydro-1H-pyrrolo[3,4-b]quinolin-1-one] |  |
| 43.8 |  | 0.51 | CCCN1Cc2nc3c(-c4ccccc4)cccc3c(N)c2C1=O [9-amino-5-phenyl-2-propyl-2,3-dihydro-1H-pyrrolo[3,4-b]quinolin-1-one] |  |
| 50.1 | 0.18 |  | CCN1Cc2nc3c(-c4ccc(OC)nc4OC)cccc3c(N)c2C1=O [Example 27, 9-Amino-5-(2,6-dimethoxypyridin-3-yl)-2-ethyl-2,3-dihydropyrrolo[3,4-b]quinolin-1-one] |  |
| 46.5 | 0.27 |  | CCCN1Cc2nc3c(-c4cccnc4)cccc3c(N)c2C1=O [Example 40, 9-Amino-2-propyl-5-pyridin-3-yl-2,3-dihydropyrrolo[3,4-b]quinolin-1-one] |  |
| 45 | 0.37 |  | CCCCN1Cc2nc3c(-c4ccc(OC)nc4OC)cccc3c(N)c2C1=O [Example 43, 9-Amino-2-butyl-5-(2,6-dimethoxypyridin-3-yl)-2,3-dihydropyrrolo[3,4-b]quinolin-1-one] |  |
|  | 0.15 | −0.078 | COc1cccc(C#N)c1-c1cccc2c(N)c3c(nc12)CN(C1CC1)C3=O [Example 139, 2-(9-Amino-2-cyclopropyl-1-oxo-2,3-dihydro-1H-pyrrolo[3,4-b]quinolin-5-yl)-3-methoxybenzonitrile] |  |

| Compound | Ki [1] [nM] | Relative Potentiation for GABAA2 (GABAA receptor α2β3γ2) | Relative Potentiation for GABAA1 (GABAA receptor α1β2γ2) | also measured |
| --- | --- | --- | --- | --- |
| COc1ccc(-c2cccc3c(N)c4c(nc23)CN(C)C4=O)c(OC)n1 [9-Amino-5-(2,6-dimethoxypyridin-3-yl)-2-methyl-2,3-dihydropyrrolo[3,4-b]quinolin-1-one] | 290 | 0.19 |  |  |
